Results as given in a melting point compilation (Tetko et al.; mined from patent text by program, amines drawn as free bases though some values may be those of a salt).

melting point [°C] | SMILES
160 to 163 | Cc1c(-c2ccccc2)oc2c(S(=O)(=O)CCCCl)cccc2c1=O
195 to 197 | O=C(Cc1ccnc2c1NC(=O)c1cccnc1N2C1CC1)c1ccccc1
50 to 55 | CCONC(=O)c1ccc(-c2cccc(CN(C)CCCc3ccccc3)c2)cn1
121 | Cc1cc(Cl)nc2ccc(Cn3ccnc3)cc12
127 | O=C(O)CCC(O)c1ccc(-c2ccc(Br)cc2)cc1 (centres undefined)
170 | N#Cc1ccc(CNC(=O)c2ccc(C=O)cc2)cc1
213 to 215 | CCOC(=O)C(=O)Nc1c([N+](=O)[O-])cc(Br)c2cccnc12
149 to 151 | O=C(NCC1CCN(CCc2ccccn2)CC1)c1ccc2nonc2c1
246 to 247 | O=C(Nc1cccc2c(CO)c(Br)cnc12)c1c(Cl)cccc1Cl
159 to 160 | COCn1ncc2cc(-c3nnc(SCc4cccc(C(F)(F)F)c4)o3)ccc21
222 to 225 | CCN1CCc2ccc(Nc3ncc([N+](=O)[O-])c(Nc4ccccc4C(=O)NC)n3)cc2CC1
167 to 169 | CNS(=O)(=O)c1ccc(C=C2C(C)=C(CC(=O)OC)c3cc(OC)ccc32)cc1
> 290 | Cc1c(CC=CNC(=O)Nc2ccccc2)[nH]c(=O)c2c1ccc1nc(Nc3c(Cl)cccc3Cl)n(C)c12
63 to 66 | COc1ccc(C(=O)Nc2ccc(-c3ccc(C)cc3Cl)cc2)cc1CCCN(C)C
85 to 86.5 | O=C(CCCCCl)c1ccc2c(c1)Cc1cc(C(=O)CCCCCl)ccc1S2
171 to 176 | CC(O)=C(C#N)C(=O)Nc1ccc(OC(F)(F)F)cc1
193 to 195 | O=C(O)COc1ccc2c(c1)CCc1sc(SC(c3ccccc3)c3ccccc3)nc1-2
174 to 175 | COc1ccc2nc(-c3cccc4ccccc34)[nH]c(=O)c2c1
58 to 59 | COC(=O)C(C)Oc1ccc(Oc2ncc(Cl)cc2F)cc1 (centres undefined)
124 to 125 | CC(=NNc1ccc(C(F)(F)F)cc1)C(=O)NCc1ccc(Cl)cc1
281 | COc1c(-c2ccc(O)c(O)c2)oc2cc(O)ccc2c1=O
103 to 106 | CCCc1c(OCCCCCOc2ccc3ccc(OCC(=O)O)cc3c2C(C)=O)ccc(C(C)=O)c1O
250 to 252 | O=c1cc(CO)oc2cc(O)ccc12
147 to 150 | Nc1cc(C(c2cc(F)ccc2F)S(=O)(=O)c2ccc(Cl)cc2)c(Cl)cn1 (centres undefined)
83 to 85 | N#Cc1ccccc1OCCCCCCCC(=O)O
269 to 271 | O=C(O)c1cc(=O)c2oc3ccc(Cl)cc3c(=O)c2n1Cc1ccccc1

melting point [°C] | SMILES
178 to 180 | COc1cc2c(OC)cccc2cc1-c1nc2cnccc2[nH]1
123 to 126 | COc1ccc(NC(=O)C(C)(C)c2ccc(S(=O)(=O)/C=C/C#N)cc2)cc1
235 | CC(=O)Nc1ccc(OCC(=O)O)c(C(=O)NCc2ccc(Br)cc2F)c1
95 to 96 | Cc1ccc(-c2nc(COc3ccc(CCCn4ccnc4)cc3Cl)co2)s1
186 to 188 | CC(C)c1cccc(C(C)C)c1NC(=O)C1c2ccccc2COc2ccc([N+](=O)[O-])cc21 (centres undefined)
165 to 166 | COc1ccc2cc(C3=C(CC(=O)O)CCCC3=O)ccc2c1Br
198 to 203 | O=C(CC1CCOCC1)c1c(O)c2cccnc2n(-c2ccccc2)c1=O
89 to 91 | O=c1oc(-c2ccc(NS(=O)(=O)c3ccccc3)cc2)cc(O)c1SCCc1ccccc1
170 to 171 | N#CCCNC(=O)c1cccc(-c2cccc3nn(Cc4cccc(F)c4)cc23)c1
126 to 128 | COc1ccc(CS(=O)(=O)c2cc3ccc(O)cc3oc2=O)cc1[N+](=O)[O-]
201 to 202 | Cc1nc(-n2cnn(CCO)c2=O)sc1C(=O)NCc1cccnc1
147 to 149 | COc1ccc(CC2SC(=O)NC2=O)cc1NC(=O)Cc1ccc(C(F)(F)F)cc1 (centres undefined)
84 to 86 | CC(=O)Nc1ccc(C(=O)Oc2ccccc2)c(Cl)c1
98 to 100 | C=CCNC(=O)c1ccc([N+](=O)[O-])cc1Br
> 210 | CC(=O)c1c[nH]c2nccc(-c3ccccc3)c12
270 to 274 | N[C@H]1CCCC[C@H]1Nc1cc2c(cc1F)c(=O)c(C(=O)O)cn2C1CC1 (relative stereo)
229 | CCCn1nc(CC)c(C(=O)O)c1Cc1ccc(-c2ccccc2-c2nnn[nH]2)cc1
129 to 132 | CS(=O)(=O)c1ccc(-n2nc(CNC(=O)Nc3ccc(C(F)(F)F)cc3)cc2-c2ccccc2)cc1
230 to 232 | CCCc1nc2c(N)nc3cc(Oc4ccccc4C#N)ccc3c2n1CC(C)C
171 to 173 | COc1cc(Oc2ccc(S(C)(=O)=O)cn2)cc2cc(C3=NCC(CC(C)(C)O)S3)[nH]c12 (centres undefined)
> 230 | NS(=O)(=O)c1ccc(NN=C2C(=O)Nc3ccc(C(=O)NCCn4ccnc4)cc32)cc1
151 | CC(C)(CCc1cc2cc(Cl)ccc2n1S(=O)(=O)c1ccc2ncsc2c1)C(=O)O
141 to 143 | O=C1CCCN(C(=O)c2ccc(Cl)cc2)C(=O)CCc2cc(Cl)ccc21
187 | Cc1c(C(=O)O)cnn1-c1ccc(F)c(Cl)c1
50 | COc1cccc(CCNC(=O)Cc2cccs2)c1

Second part, the compound before the results:

SMILES | melting point [°C]
CCOC1=CC2=CCC3C(CCC4(C)C3CCC4(C)C(C)=O)C2(C)CC1 (centres undefined) | 114 to 116
CC(=O)OCCN1CCN(C(=O)Cn2c(=O)sc3ncc(Cl)cc32)CC1 | 153 to 155
Fc1ccc(F)c(CN2CCNc3ncc(I)cc32)c1Cl | 156 to 157
COc1cc(OC)c(OC)cc1C=CC=O | 140
CN(C)c1ccc(C=CC(O)c2cnc3sc4c(n23)CCCCC4)cc1 (centres undefined) | 168 to 170
O=[N+]([O-])c1cc(S(=O)(=O)N2CCC(O)C2)sc1Cl (racemic) | 96
O=S(=O)(Nc1cc(Cl)sc1Cl)c1cc(-c2ncc(C(F)(F)F)cc2Cl)ccc1Cl | 106 to 108
CCS(=O)(=O)Nc1cc(-n2nnn(CCCF)c2=O)c(F)cc1Cl | 84 to 85
O=c1[nH]ccc2c1C(c1cccc(Cl)c1)N=C(c1ccccc1)N2 (centres undefined) | 172 to 173
COc1cc(C)cc(OC)c1NC1C2CC3CC(C2)CC1C3 (centres undefined) | 100
COc1cccc2c1-c1ccc3c(c1C(O)O2)C(C)=CC(C)(C)N3 (centres undefined) | 184 to 185
CN(C)C=CC(=O)c1ccc(OCC(O)CN2CCN(c3ccc(Cl)cc3)CC2)cc1 (centres undefined) | 185
CC#CCOc1ccc(S(=O)(=O)N2CCOCC2C(=O)O)cc1 (centres undefined) | 40 to 42
C=CS(=O)(=O)Nc1c(C)cc(C)cc1C | 117 to 120
COC(=O)C1(C(=O)OC)CCC1(C(=O)OC)C(=O)OC | 80.5 to 81
CC(=O)OCC1=CC(=O)C=C2CCC3C4CCC(=O)C4(C)CCC3C21C (centres undefined) | 121 to 123
Nc1noc(C23CCCN(C2)C3)n1 | 167 to 170
Cc1cc(CCCOc2c(C)cc(C#N)cc2C)on1 | 46 to 48
Cc1cc(-c2nc3ccc(CN4CCOCC4)cc3c(=O)[nH]2)ccn1 | 267 to 268
COC=Nc1c(SC)c(-c2ncon2)nn1-c1c(Cl)cc(C(F)(F)F)cc1Cl | 119 to 121
O=c1[nH]nc2n1-c1ccc(Cl)nc1C(c1ccccc1Cl)=NC2O (centres undefined) | 260 to 262
CCCOc1ccc(S(=O)(=O)N2CCN(CC)CC2)cc1-c1nc2cc3ncn(Cc4ccccc4OC)c3cc2c(=O)[nH]1 | 180 to 182
CC(C)(C)N1C(=O)C(=O)N(c2ccc(C#N)cc2)C1=S | 200 to 201
CC(=O)C(C#N)=Cc1ccccc1 | 83 to 84

SMILES | melting point [°C]
CCC(C#N)CCn1nc(C(N)=O)c2ccccc21 (centres undefined) | 178 to 180
CC(C)(C)N=NC(C)(C#N)COC(=O)c1ccccc1 (centres undefined) | 57 to 59
N#CC(N)=C(C#N)NCc1cnn(-c2c(Cl)cc(C(F)(F)F)cc2Cl)n1 | 191 to 192
CCCn1nc(-c2ccc(OC)cc2)c2cccc(-c3ccccc3)c21 | 58 to 59
O=S(=O)(c1ccccc1)n1c(-c2c(F)cccc2F)nc2ccccc21 | 104 to 106
c1ccc(-c2nn(CCCCCCCCc3nn[nH]n3)c(-c3ccccc3)c2-c2ccccc2)cc1 | 158 to 160
Cc1c[nH]c(C)c1C(C)(C)C | 70 to 71
O=C1CN(SC(Cl)(Cl)Cl)C(=O)N1SC(Cl)(Cl)Cl | 142
O=C(O)c1ncccc1Cl | 126 to 128
CN1CCN(c2nccnc2Cl)CC1 | 34 to 36
CCCn1c(=S)nc(NCc2ccncc2)c2[nH]c(C3CC3)nc21 | 204 to 210
C/C(=C(\C#N)C(N)=S)N1CCCN(c2ccccc2C)CC1 | 99 to 100
C=CC(=O)OC(C#N)Cc1ccc(OC)c(OC)c1 (centres undefined) | 154 to 156
O=C(OCCN1CCCC1)c1c[nH]c2ccccc12 | 145 to 146
CC(C)n1cc(C(=O)Nc2nccs2)c2ccc(O)cc21 | 239 to 241
CC(CCC(=O)C(C)(C)OO)C1CCC2C3CC=C4CC(O)CCC4(C)C3CCC12C (centres undefined) | 146 to 147
CCC(O)(c1ccc(OCCCN2CCN(C)CC2)cc1)c1cccc(C(F)(F)F)c1 (centres undefined) | 129 to 130
CCOC(=O)c1sc(C(=O)OCC)c2c1OCC(CC)(CC)CO2 | 100
C1CNC2CNCC2C1 (centres undefined) | 65 to 67
N#Cc1c(N2CCN(C(=O)c3ccco3)CC2)c2cc(Cl)cnc2n(Cc2ccccc2)c1=O | 196
COc1cc2c(c(C(C)(C)C)c1)OC(=O)C2 | 117 to 118
COc1ccc(Cn2c(C(C)C)c(C(=O)c3cccnc3)c3ccccc32)cc1 | 190
N#CN=C(Nc1cccnc1)NC(NC(=O)c1ccc(Cl)cc1)C12CC3CC(CC(C3)C1)C2 (centres undefined) | 209 to 210
Cc1c(NC(=O)CC(C)(C)C)c(C)c2c(c1-c1cccc(N3CCCC3)c1)OCC2c1ccc(C(C)C)cc1 (centres undefined) | 206 to 207
